# System: PC3 cells
# Assay: NAMPT Cell Proliferation Assay (Cell Titer Glo; also performed in the presence of 0.3 mM nicotinamide mononucleotide)
# Type: cell-based
# Details: Homo sapiens, PC-3, 120 h, 5 days incubation, cell viability by Cell Titer Glo
# Description: NAMPT Cell Proliferation Assay
# PC3 cells were seeded in 96-well black plates (Corning #3904) at 500 cells/well in 90 μl of RPMI media containing 10% heat-inactivated FBS and incubated overnight at 37° C. and 5% CO2 to allow cells to attach to wells. The following day, test compounds were serially diluted in neat DMSO to 1000× final concentrations prior to dilution with RPMI media to 10× and 1% DMSO. Ten μL of the 10× compounds were then transferred to wells containing cells to produce a dose response of 10-fold dilutions from 10 μM to 1×10^−5 μM. Cells were incubated for 5 days at 37° C. and 5% CO2, then cell viability was measured using Cell Titer Glo reagent (Promega #G7571). Percent inhibition values were calculated and fitted to a sigmoidal dose response curves using Assay Explorer software to determine IC50s.
row,Compound,IC50 [nM]
1,"CSCCC(=O)N1CCC(Cc2ccc(NC(=O)C3CN(c4cccnn4)C3)cc2)CC1 [Example 936, N-[4-({1-[3-(methylsulfanyl)propanoyl]piperidin-4-yl}methyl)phenyl]-1-(pyridazin-3-yl)azetidine-3-carboxamide]",2.18
2,"O=C(Nc1ccc(CC2CCN(C(=O)CC3CCCC3)CC2)cc1)C1CN(c2cccnn2)C1 [Example 962, N-(4-{[1-(cyclopentylacetyl)piperidin-4-yl]methyl}phenyl)-1-(pyridazin-3-yl)azetidine-3-carboxamide]",2.4
3,"CC(C)C(=O)N1CCC(Cc2ccc(NC(=O)C3CN(c4cccnn4)C3)cc2)CC1 [Example 901, N-(4-{[1-(2-methylpropanoyl)piperidin-4-yl]methyl}phenyl)-1-(pyridazin-3-yl)azetidine-3-carboxamide]",2.07
4,"O=C(NCCC(F)(F)F)c1ccc(NC(=O)C2CN(c3cccnn3)C2)cc1 [Example 997, 1-(pyridazin-3-yl)-N-{4-[(3,3,3-trifluoropropyl)carbamoyl]phenyl}azetidine-3-carboxamide]",93.5
5,"O=C(Nc1ccc(CC2CCN(C(=O)c3cccs3)CC2)cc1)C1CN(c2cccnn2)C1 [Example 947, 1-(pyridazin-3-yl)-N-(4-{[1-(thiophen-2-ylcarbonyl)piperidin-4-yl]methyl}phenyl)azetidine-3-carboxamide]",2.56
6,"Cc1ccnnc1N1CC(C(=O)Nc2ccc(C3CCN(C(=O)CC(C)(C)C)CC3)cc2)C1 [Example 969, N-{4-[1-(3,3-dimethylbutanoyl)piperidin-4-yl]phenyl}-1-(4-methylpyridazin-3-yl)azetidine-3-carboxamide]",0.347
7,"O=C(N[C@H]1CCN(c2cccnn2)C1)c1ccc(C2CCN(C(=O)CC3CC4CCC3C4)CC2)s1 (stereo partly drawn) [Example 1019, 5-[1-(bicyclo[2.2.1]hept-2-ylacetyl)piperidin-4-yl]-N-[(3S)-1-(pyridazin-3-yl)pyrrolidin-3-yl]thiophene-2-carboxamide]",2460
8,"COCCOCC(=O)N1CCC(Cc2ccc(NC(=O)C3CN(c4cccnn4)C3)cc2)CC1 [Example 945, N-[4-({1-[(2-methoxyethoxy)acetyl]piperidin-4-yl}methyl)phenyl]-1-(pyridazin-3-yl)azetidine-3-carboxamide]",4.51
9,"C#CCCC(=O)N1CCC(Cc2ccc(NC(=O)C3CN(c4cccnn4)C3)cc2)CC1 [Example 941, N-(4-{[1-(pent-4-ynoyl)piperidin-4-yl]methyl}phenyl)-1-(pyridazin-3-yl)azetidine-3-carboxamide]",2.1
10,"O=C(Nc1ccc(C2CCN(C(=O)c3cccc(F)c3)CC2)c(F)c1)C1CN(c2cccnn2)C1 [Example 879, N-{3-fluoro-4-[1-(3-fluorobenzoyl)piperidin-4-yl]phenyl}-1-(pyridazin-3-yl)azetidine-3-carboxamide]",5.83
11,"O=C(Nc1ccc(CC2CCN(C(=O)C3CCCC3)CC2)cc1)C1CN(c2cccnn2)C1 [Example 928, N-(4-{[1-(cyclopentylcarbonyl)piperidin-4-yl]methyl}phenyl)-1-(pyridazin-3-yl)azetidine-3-carboxamide]",2.56
12,"CC(C)(C)C(=O)N1CCC(O)(c2ccc(NC(=O)C3CN(c4cccnn4)C3)cc2)CC1 [Example 890, N-{4-[1-(2,2-dimethylpropanoyl)-4-hydroxypiperidin-4-yl]phenyl}-1-(pyridazin-3-yl)azetidine-3-carboxamide]",4.09
13,"CCC(C)C(=O)N1CCC(Cc2ccc(NC(=O)C3CN(c4cccnn4)C3)cc2)CC1 (centres unmarked) [Example 957, N-(4-{[1-(2-methylbutanoyl)piperidin-4-yl]methyl}phenyl)-1-(pyridazin-3-yl)azetidine-3-carboxamide]",1.93
14,"Nc1ncccc1C(=O)N1CCC(c2ccc(NC(=O)C3CN(c4cccnn4)C3)cc2)CC1 [Example 910, N-(4-{1-[(2-aminopyridin-3-yl)carbonyl]piperidin-4-yl}phenyl)-1-(pyridazin-3-yl)azetidine-3-carboxamide]",6.51

# Reference: patent publication US8975398B2, “NAMPT inhibitors” (AbbVie Inc., priority 2012, dated 2015)
